Broadly, the melting point is the temperature of the solid-liquid transition. Broadly, the solubility is how much of the substance goes into solution per volume.

Molecules are shown by their SMILES. “And” between values parts separate entries of the source, which are not always exact repeats. Equal entries are not always repeated.

The first series is described as follows: Spectroscopic data: absorption, emission, Stokes shift, extinction coefficient, fluorescence quantum yield. The class given is physicochemical.
Settings: not given
An excerpt: Spectroscopic data of compounds 3a, 3b and 3d as well as comparative compounds
Rhodamine B in EtOH or Rhodamine 6G in EtOH are used as standards for quantum yield measurements.
For `COc1cc2c(cc1OC)C1=C3C(=O)N4C=C(c5ccccc5)c5cc(OC)c(OC)cc5C4=C3C(=O)N1C=C2c1ccccc1` [3a], the “fluorescence quantum yield” value is “around 80%”.
The same measure, in the same setting: as for `COc1cccc(C2=CN3C(=O)C4=C5c6cc(OC)c(OC)cc6C(c6cccc(OC)c6)=CN5C(=O)C4=C3c3cc(OC)c(OC)cc32)c1` [3b], the entry is “around 80%”; as for `CC(C)(C)c1cc(C(C)(C)C)c2oc3c(c2c1)C(c1ccccc1)=CN1C(=O)C2=C4c5oc6c(C(C)(C)C)cc(C(C)(C)C)cc6c5C(c5ccccc5)=CN4C(=O)C2=C31` [3d], “around 80%”.

Staying with this series, now noted: solvent CHCl3.
As to `COc1cc2c(cc1OC)C1=C3C(=O)N4C=C(c5ccccc5)c5cc(OC)c(OC)cc5C4=C3C(=O)N1C=C2c1ccccc1` [3a], the Stokes shift is 140 cm⁻¹, the maxλabs was 600 nm, the maxλem was 605 nm and the εmax is 100000 M⁻¹ cm⁻¹.
Regarding `COc1cccc(C2=CN3C(=O)C4=C5c6cc(OC)c(OC)cc6C(c6cccc(OC)c6)=CN5C(=O)C4=C3c3cc(OC)c(OC)cc32)c1` [3b], the Stokes shift came out at 220 cm⁻¹, the maxλabs was 601 nm, the maxλem is given as 609 nm and the εmax worked out at 85000 M⁻¹ cm⁻¹.
Taken in the same sequence, the figures for `CC(C)(C)c1cc(C(C)(C)C)c2oc3c(c2c1)C(c1ccccc1)=CN1C(=O)C2=C4c5oc6c(C(C)(C)C)cc(C(C)(C)C)cc6c5C(c5ccccc5)=CN4C(=O)C2=C31` [3d] were 160 cm⁻¹, 654 nm, 661 nm and 150000 M⁻¹ cm⁻¹.
The matching figures for `COc1cc2c(cc1OC)C1=C3C(=O)N4C=Cc5cc(OC)c(OC)cc5C4=C3C(=O)N1C=C2` [V-1]: 200 cm⁻¹, 593 nm, 600 nm and 110000 M⁻¹ cm⁻¹.
The matching figures for `CC(C)(C)c1cc(C(C)(C)C)c2oc3c(c2c1)C=CN1C(=O)C2=C4c5oc6c(C(C)(C)C)cc(C(C)(C)C)cc6c5C=CN4C(=O)C2=C31` [V-2]: 210 cm⁻¹, 643 nm, 652 nm and 120000 M⁻¹ cm⁻¹.

Staying with this series, now noted: solvent CHCl3; standards Rhodamine B or Rhodamine 6G in EtOH.
In the case of `COc1cc2c(cc1OC)C1=C3C(=O)N4C=C(c5ccccc5)c5cc(OC)c(OC)cc5C4=C3C(=O)N1C=C2c1ccccc1` [3a], the “φfl (fluorescence quantum yield)” value stood at 0.89.
On the same count and under the same terms, with `COc1cccc(C2=CN3C(=O)C4=C5c6cc(OC)c(OC)cc6C(c6cccc(OC)c6)=CN5C(=O)C4=C3c3cc(OC)c(OC)cc32)c1` [3b] the figure was 0.85; with `CC(C)(C)c1cc(C(C)(C)C)c2oc3c(c2c1)C(c1ccccc1)=CN1C(=O)C2=C4c5oc6c(C(C)(C)C)cc(C(C)(C)C)cc6c5C(c5ccccc5)=CN4C(=O)C2=C31` [3d], 0.81; with `COc1cc2c(cc1OC)C1=C3C(=O)N4C=Cc5cc(OC)c(OC)cc5C4=C3C(=O)N1C=C2` [V-1], 0.19.
Still for that read-out and setting: as for `CC(C)(C)c1cc(C(C)(C)C)c2oc3c(c2c1)C=CN1C(=O)C2=C4c5oc6c(C(C)(C)C)cc(C(C)(C)C)cc6c5C=CN4C(=O)C2=C31` [V-2], the figure is 0.05.

Still in this series, the particulars now being: solvent DMF.
On to `COc1cc2c(cc1OC)C1=C3C(=O)N4C=Cc5cc(OC)c(OC)cc5C4=C3C(=O)N1C=C2` [V-1], for which the Stokes shift was 220 cm⁻¹, the maxλabs was determined as 593 nm, the maxλem was 601 nm and the εmax turned out to be 91000 M⁻¹ cm⁻¹.
The matching figures for `CC(C)(C)c1cc(C(C)(C)C)c2oc3c(c2c1)C=CN1C(=O)C2=C4c5oc6c(C(C)(C)C)cc(C(C)(C)C)cc6c5C=CN4C(=O)C2=C31` [V-2]: 240 cm⁻¹, 645 nm, 655 nm and 107000 M⁻¹ cm⁻¹.

The series is the same for the next values; noted with them: solvent DMF; standards Rhodamine B or Rhodamine 6G in EtOH.
As for `COc1cc2c(cc1OC)C1=C3C(=O)N4C=Cc5cc(OC)c(OC)cc5C4=C3C(=O)N1C=C2` [V-1], the “φfl (fluorescence quantum yield)” value turned out to be 0.22.
For the compound `CC(C)(C)c1cc(C(C)(C)C)c2oc3c(c2c1)C=CN1C(=O)C2=C4c5oc6c(C(C)(C)C)cc(C(C)(C)C)cc6c5C=CN4C(=O)C2=C31` [V-2], the “φfl (fluorescence quantum yield)” value is 0.02.

Test in the next series: not given
Settings: not given
With `CC(C)(C)c1cc(C(C)(C)C)c2oc3c(c2c1)C(c1ccccc1)=CN1C(=O)C2=C4c5oc6c(C(C)(C)C)cc(C(C)(C)C)cc6c5C(c5ccccc5)=CN4C(=O)C2=C31` [3d], the melting point is > 400 °C (dec.).

A short description of the next series: Solubility in typical organic solvents. The series is classed as physicochemical. As to conditions: in typical organic solvents. The text has this:
Reference is made to the below table.
For `COc1cc2c(cc1OC)C1=C3C(=O)N4C=C(c5ccccc5)c5cc(OC)c(OC)cc5C4=C3C(=O)N1C=C2c1ccccc1` [3a], the “solubility compared with compound V-1” value is reported as “order of magnitude higher”.
The same measure, in the same setting: as for `COc1cccc(C2=CN3C(=O)C4=C5c6cc(OC)c(OC)cc6C(c6cccc(OC)c6)=CN5C(=O)C4=C3c3cc(OC)c(OC)cc32)c1` [3b], the entry is “order of magnitude higher”; as for `CC(C)(C)c1cc(C(C)(C)C)c2oc3c(c2c1)C(c1ccccc1)=CN1C(=O)C2=C4c5oc6c(C(C)(C)C)cc(C(C)(C)C)cc6c5C(c5ccccc5)=CN4C(=O)C2=C31` [3d], “order of magnitude higher”.

The series is the same for the next values; noted with them: organic solvent or mixture; in CHCl3; read-out: Solubility in CHCl3.
Take `COc1cc2c(cc1OC)C1=C3C(=O)N4C=C(c5ccccc5)c5cc(OC)c(OC)cc5C4=C3C(=O)N1C=C2c1ccccc1` [3a]: the solubility was 3460 µM and 2110 µg/mL.
On the same count and under the same terms, as for `COc1cccc(C2=CN3C(=O)C4=C5c6cc(OC)c(OC)cc6C(c6cccc(OC)c6)=CN5C(=O)C4=C3c3cc(OC)c(OC)cc32)c1` [3b], the figure is 955 µM and 639 µg/mL; as for `COc1cc2c(cc1OC)C1=C3C(=O)N4C=Cc5cc(OC)c(OC)cc5C4=C3C(=O)N1C=C2` [V-1], 272 µM and 126 µg/mL.

The series is the same for the next values; noted with them: organic solvent or mixture; in Toluene; read-out: Solubility in Toluene.
With `COc1cc2c(cc1OC)C1=C3C(=O)N4C=C(c5ccccc5)c5cc(OC)c(OC)cc5C4=C3C(=O)N1C=C2c1ccccc1` [3a], the solubility is 47 µM and 28.6 µg/mL.
The same measure, in the same setting: with `COc1cccc(C2=CN3C(=O)C4=C5c6cc(OC)c(OC)cc6C(c6cccc(OC)c6)=CN5C(=O)C4=C3c3cc(OC)c(OC)cc32)c1` [3b] the figure was 53.4 µM and 35.7 µg/mL.
Same read-out and setting: as for `COc1cc2c(cc1OC)C1=C3C(=O)N4C=Cc5cc(OC)c(OC)cc5C4=C3C(=O)N1C=C2` [V-1], the figure is 6.13 µM and 2.85 µg/mL.
